Measured values taken from ChEMBL document CHEMBL4622905, “Synthesis and antifungal activity of new hybrids pyrimido[4,5-d]pyridazinone-N-acylhydrazones” (Bioorg Med Chem Lett, 2020).
≈ marks a conversion by molar mass, not a printed value. Calls of active or inactive are those of the source. The calls are words filed in the database; no cut-off is given here.

Experiments:
[1] = system: Paracoccidioides brasiliensis; experiment: Antifungal activity against Paracoccidioides brasiliensis Pb18; assay type: functional
[2] = system: Paracoccidioides brasiliensis; experiment: Antifungal activity against Paracoccidioides brasiliensis Pb18 in presence of amphotericin B; assay type: functional
[3] = Selectivity index, ratio for cytotoxicity for human HeLa cells to MIC for Paracoccidioides brasiliensis Pb18; assay type: toxicity, cell-based
[4] = system: Paracoccidioides brasiliensis; experiment: Synergistic antifungal activity against Paracoccidioides brasiliensis Pb18 assessed as fractional inhibitory concentration in presence of amphotericin B; assay type: functional
[5] = system: Paracoccidioides brasiliensis; experiment: Antifungal activity against Paracoccidioides brasiliensis Pb18 in presence of 0.25 ug/ml amphotericin B; assay type: functional
[6] = system: Paracoccidioides brasiliensis; experiment: Fungicidal activity against Paracoccidioides brasiliensis Pb18; assay type: functional
[7] = Selectivity index, ratio for cytotoxicity for monkey Vero cells to MIC for Paracoccidioides brasiliensis Pb18; assay type: toxicity, cell-based
[8] = system: HeLa; experiment: Cytotoxicity against human HeLa cells at 512 ug/ml; assay type: cell-based
[9] = system: Vero; experiment: Cytotoxicity against monkey Vero cells at 512 ug/ml; assay type: cell-based; details: chlorocebus sabaeus
[10] = system: Candida; experiment: Antifungal activity against Candida; assay type: functional, organism-based
[11] = system: Paracoccidioides brasiliensis; experiment: Antifungal activity against Paracoccidioides brasiliensis Pb18 in presence of 0.06 ug/ml amphotericin B; assay type: functional
[12] = system: Candida tropicalis; experiment: Antifungal activity against Candida tropicalis; assay type: functional
[13] = system: Candida albicans; experiment: Antifungal activity against Candida albicans; assay type: functional
[14] = system: Paracoccidioides brasiliensis; experiment: Antifungal activity against Paracoccidioides brasiliensis Pb18 in presence of 0.01 ug/ml amphotericin B; assay type: functional
[15] = system: Paracoccidioides brasiliensis; experiment: Antifungal activity against Paracoccidioides brasiliensis Pb18 in presence of 0.125 ug/ml amphotericin B; assay type: functional
[16] = system: Nakaseomyces glabratus; experiment: Antifungal activity against Candida glabrata; assay type: functional

Q: With `COc1ccc(/C=N/NC(=O)c2n[nH]c(=O)c3nc(-c4ccccc4)ncc23)cc1` as the compound, how does the MIC [1] read?
A: > 256 µg/mL

Q: What does the source list for `O=C(N/N=C/c1ccc(F)cc1)c1n[nH]c(=O)c2nc(-c3ccccc3)ncc12`?
A: MIC [2]: 8 µg/mL; selectivity ratio [3]: 5; FIC [4]: 0.625; MIC [5]: 0.5 µg/mL; MFC [6]: 32 µg/mL (≈ 82.4 µM); selectivity ratio [7]: 5; Activity [8]: > 80%; Activity [9]: > 80%; Activity [10]: inactive; MIC [1]: 32 µg/mL (≈ 82.4 µM)

Q: For `O=C(N/N=C/c1ccccn1)c1n[nH]c(=O)c2nc(-c3ccccc3)ncc12`, which MIC [1] is on record?
A: > 256 µg/mL

Q: With `O=C(N/N=C/c1ccc(O)cc1)c1n[nH]c(=O)c2nc(-c3ccccc3)ncc12` as the compound, how does the MIC [2] read?
A: 16 µg/mL

Q: And the selectivity ratio [3]?
A: 5

Q: And the MIC [11]?
A: 0.5 µg/mL

Q: And the FIC [4]?
A: 0.37

Q: What about the MFC [6] of the same compound?
A: 32 µg/mL (≈ 82.8 µM)

Q: And the selectivity ratio [7]?
A: 5

Q: What about the Activity [8] of the same compound?
A: > 80%

Q: And the Activity [9]?
A: > 80%

Q: What about the Activity [10] of the same compound?
A: inactive

Q: What about the MIC [1] of the same compound?
A: 32 µg/mL (≈ 82.8 µM)

Q: Which MIC [12] does the source give for `O=C(N/N=C/c1ccccc1)c1n[nH]c(=O)c2nc(-c3ccccc3)ncc12` here?
A: 8 µg/mL (≈ 21.6 µM)

Q: What about the MIC [2] of the same compound?
A: 0.031 µg/mL

Q: And the selectivity ratio [3]?
A: 13

Q: What about the FIC [4] of the same compound?
A: 0.134

Q: And the MFC [6]?
A: 0.5 µg/mL (≈ 1.35 µM)

Q: And the MIC [13]?
A: 4 µg/mL (≈ 10.8 µM)

Q: What about the selectivity ratio [7] of the same compound?
A: 13

Q: And the Activity [8]?
A: > 80%

Q: And the MIC [14]?
A: 1 µg/mL

Q: What about the Activity [9] of the same compound?
A: > 80%

Q: And the MIC [1]?
A: 0.125 µg/mL (≈ 0.337 µM)

Q: Which MIC [2] does the source give for `O=C(N/N=C/c1cc([N+](=O)[O-])ccc1O)c1n[nH]c(=O)c2nc(-c3ccccc3)ncc12` here?
A: 8 µg/mL

Q: What about the selectivity ratio [3] of the same compound?
A: 3

Q: What about the FIC [4] of the same compound?
A: 0.625

Q: And the MFC [6]?
A: 128 µg/mL (≈ 297 µM)

Q: And the selectivity ratio [7]?
A: 3

Q: What about the Activity [8] of the same compound?
A: > 80%

Q: And the Activity [9]?
A: > 80%

Q: What about the Activity [10] of the same compound?
A: inactive

Q: And the MIC [15]?
A: 0.25 µg/mL

Q: What about the MIC [1] of the same compound?
A: 128 µg/mL (≈ 297 µM)

Q: With `CCC(C)n1ncn(-c2ccc(N3CCN(c4ccc(OCC5COC(Cn6cncn6)(c6ccc(Cl)cc6Cl)O5)cc4)CC3)cc2)c1=O` (stereo not drawn) [ITRACONAZOLE] as the compound, how does the MIC [1] read?
A: 1 µg/mL (≈ 1.42 µM)

Q: For `O=C(N/N=C/c1ccccc1O)c1n[nH]c(=O)c2nc(-c3ccccc3)ncc12`, which MIC [2] is on record?
A: 8 µg/mL

Q: And the selectivity ratio [3]?
A: 3

Q: And the FIC [4]?
A: 0.625

Q: And the MFC [6]?
A: 128 µg/mL (≈ 331 µM)

Q: And the selectivity ratio [7]?
A: 3

Q: What about the Activity [8] of the same compound?
A: > 80%

Q: What about the Activity [9] of the same compound?
A: > 80%

Q: What about the Activity [10] of the same compound?
A: inactive

Q: What about the MIC [15] of the same compound?
A: 0.25 µg/mL

Q: And the MIC [1]?
A: 128 µg/mL (≈ 331 µM)

Q: For `COc1cc(/C=N/NC(=O)c2n[nH]c(=O)c3nc(-c4ccccc4)ncc23)cc(OC)c1O`, which MIC [2] is on record?
A: 16 µg/mL

Q: What about the selectivity ratio [3] of the same compound?
A: 4

Q: What about the FIC [4] of the same compound?
A: 0.75

Q: What about the MFC [6] of the same compound?
A: 64 µg/mL (≈ 143 µM)

Q: What about the selectivity ratio [7] of the same compound?
A: 4

Q: And the Activity [8]?
A: > 80%

Q: And the Activity [9]?
A: > 80%

Q: And the Activity [10]?
A: inactive

Q: And the MIC [15]?
A: 0.5 µg/mL

Q: What about the MIC [1] of the same compound?
A: 64 µg/mL (≈ 143 µM)

Q: For `CN(C)c1ccc(/C=N/NC(=O)c2n[nH]c(=O)c3nc(-c4ccccc4)ncc23)cc1`, which MIC [1] is on record?
A: > 256 µg/mL

Q: For `O=C(N/N=C/c1ccc([N+](=O)[O-])cc1)c1n[nH]c(=O)c2nc(-c3ccccc3)ncc12`, which MIC [1] is on record?
A: > 256 µg/mL

Q: With `COc1ccc(/C=N/NC(=O)c2n[nH]c(=O)c3nc(-c4ccccc4)ncc23)cc1OC` as the compound, how does the MIC [2] read?
A: 16 µg/mL

Q: What about the selectivity ratio [3] of the same compound?
A: 4

Q: And the FIC [4]?
A: 0.625

Q: What about the MIC [5] of the same compound?
A: 0.5 µg/mL

Q: And the MFC [6]?
A: 64 µg/mL (≈ 149 µM)

Q: What about the selectivity ratio [7] of the same compound?
A: 4

Q: And the Activity [8]?
A: > 80%

Q: What about the Activity [9] of the same compound?
A: > 80%

Q: And the Activity [10]?
A: inactive

Q: And the MIC [1]?
A: 64 µg/mL (≈ 149 µM)

Q: Which MIC [1] does the source give for `COc1cc(/C=N/NC(=O)c2n[nH]c(=O)c3nc(-c4ccccc4)ncc23)ccc1O` here?
A: > 256 µg/mL

Q: For `NNC(=O)c1n[nH]c(=O)c2nc(-c3ccccc3)ncc12`, which MIC [1] is on record?
A: > 256 µg/mL

Q: Which results are given for `C[C@@H]1[C@H](O)[C@@H](C)/C=C/C=C/C=C/C=C/C=C/C=C/C=C/[C@H](O[C@@H]2O[C@H](C)[C@@H](O)[C@H](N)[C@@H]2O)C[C@@H]2O[C@](O)(C[C@@H](O)C[C@@H](O)[C@H](O)CC[C@@H](O)C[C@@H](O)CC(=O)O[C@H]1C)C[C@H](O)[C@H]2C(=O)O` [AMPHOTERICIN B]?
A: MFC [6]: 1 µg/mL (≈ 1.08 µM); MIC [1]: 1 µg/mL (≈ 1.08 µM)

Q: Which MIC [1] does the source give for `O=C(N/N=C/c1cccs1)c1n[nH]c(=O)c2nc(-c3ccccc3)ncc12` here?
A: > 256 µg/mL

Q: With `O=C(N/N=C/c1cccc([N+](=O)[O-])c1)c1n[nH]c(=O)c2nc(-c3ccccc3)ncc12` as the compound, how does the MIC [1] read?
A: > 256 µg/mL

Q: What does the source list for `O=C(N/N=C/c1cc(Cl)ccc1O)c1n[nH]c(=O)c2nc(-c3ccccc3)ncc12`?
A: MIC [16]: 4 µg/mL (≈ 9.51 µM); MIC [2]: 4 µg/mL; selectivity ratio [3]: 4; MIC [11]: 0.5 µg/mL; FIC [4]: 0.245; MFC [6]: 64 µg/mL (≈ 152 µM); selectivity ratio [7]: 4; Activity [8]: > 80%; Activity [9]: > 80%; MIC [1]: 64 µg/mL (≈ 152 µM)

Q: With `O=C(N/N=C/c1ccc(-c2cccs2)s1)c1n[nH]c(=O)c2nc(-c3ccccc3)ncc12` as the compound, how does the MIC [1] read?
A: > 256 µg/mL
